Calls of active or inactive are those of the source. The rule behind the calls is not given here.
Experiments:
[1] = target: GABA-A receptor; alpha-1/beta-3/gamma-2 (Homo sapiens) (UniProt P14867+P18507+P28472); assay: Efficacy against human recombinant GABAA alpha-1-beta-3-gamma-2 expressed in L(tk-) cells by whole cell patch clamp method relative to chlordiazepoxide; format: functional, cell-based
[2] = target: T1, GABA-A receptor; alpha-2/beta-3/gamma-2 (Homo sapiens) (UniProt P18507+P28472+P47869); assay: Efficacy against human recombinant GABAA alpha-2-beta-3-gamma-2 expressed in L(tk-) cells by whole cell patch clamp method relative to chlordiazepoxide; format: functional, cell-based
[3] = target: T2, GABA-A receptor; alpha-3/beta-3/gamma-2 (Homo sapiens) (UniProt P18507+P28472+P34903); assay: Efficacy against human recombinant GABAA alpha-3-beta-3-gamma-2 expressed in L(tk-) cells by whole cell patch clamp method relative to chlordiazepoxide; format: functional, cell-based
[4] = target: T3, GABA-A receptor; alpha-5/beta-3/gamma-2 (Homo sapiens) (UniProt P18507+P28472+P31644); assay: Efficacy against human recombinant GABAA alpha-5-beta-3-gamma-2 expressed in L(tk-) cells by whole cell patch clamp method relative to chlordiazepoxide; format: functional, cell-based
[5] = target: T1, GABA-A receptor; alpha-2/beta-3/gamma-2 (Homo sapiens); assay: Efficacy against human recombinant GABAA alpha-2-beta-3-gamma-2 expressed in L(tk-) cells by whole cell patch clamp method; format: cell-based
[6] = Plasma clearance in dog; format: ADME, organism-based, Canis lupus familiaris
[7] = target: T4, GABA-A receptor; alpha-1/beta-3/gamma-2 (Homo sapiens, UniProt P14867+P18507+P28472); assay: Displacement of [3H]-Ro15-1788 from human recombinant GABAA alpha1 in combination with beta-3-gamma-2 expressed in L(tk-) cells; format: cell-based
T4 sequence (P14867 whole entry): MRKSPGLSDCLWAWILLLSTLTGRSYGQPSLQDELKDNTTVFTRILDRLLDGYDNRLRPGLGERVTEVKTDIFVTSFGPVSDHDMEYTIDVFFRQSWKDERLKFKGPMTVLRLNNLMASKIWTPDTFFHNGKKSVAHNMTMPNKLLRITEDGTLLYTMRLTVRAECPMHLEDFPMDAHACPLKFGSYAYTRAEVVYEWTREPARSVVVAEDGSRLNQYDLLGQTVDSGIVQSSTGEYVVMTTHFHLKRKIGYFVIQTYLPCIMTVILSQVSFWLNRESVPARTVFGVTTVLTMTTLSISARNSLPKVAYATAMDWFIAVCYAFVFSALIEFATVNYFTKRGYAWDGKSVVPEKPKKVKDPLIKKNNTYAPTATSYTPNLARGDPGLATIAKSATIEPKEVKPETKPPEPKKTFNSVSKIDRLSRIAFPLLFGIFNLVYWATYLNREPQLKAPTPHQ
T4 sequence (P18507 whole entry): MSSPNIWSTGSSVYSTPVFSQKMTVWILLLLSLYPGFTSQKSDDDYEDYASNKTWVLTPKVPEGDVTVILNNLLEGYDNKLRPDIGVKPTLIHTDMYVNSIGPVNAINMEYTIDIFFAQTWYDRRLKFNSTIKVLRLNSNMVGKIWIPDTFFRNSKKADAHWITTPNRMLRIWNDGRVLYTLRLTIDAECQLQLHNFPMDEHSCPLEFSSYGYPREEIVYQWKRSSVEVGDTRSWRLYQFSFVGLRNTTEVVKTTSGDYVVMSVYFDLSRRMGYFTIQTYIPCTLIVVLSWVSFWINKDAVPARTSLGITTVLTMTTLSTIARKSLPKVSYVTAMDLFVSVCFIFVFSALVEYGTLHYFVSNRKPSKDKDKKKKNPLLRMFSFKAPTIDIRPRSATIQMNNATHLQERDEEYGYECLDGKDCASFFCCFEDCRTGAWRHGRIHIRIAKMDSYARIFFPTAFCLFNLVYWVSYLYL
T4 sequence (P28472 whole entry): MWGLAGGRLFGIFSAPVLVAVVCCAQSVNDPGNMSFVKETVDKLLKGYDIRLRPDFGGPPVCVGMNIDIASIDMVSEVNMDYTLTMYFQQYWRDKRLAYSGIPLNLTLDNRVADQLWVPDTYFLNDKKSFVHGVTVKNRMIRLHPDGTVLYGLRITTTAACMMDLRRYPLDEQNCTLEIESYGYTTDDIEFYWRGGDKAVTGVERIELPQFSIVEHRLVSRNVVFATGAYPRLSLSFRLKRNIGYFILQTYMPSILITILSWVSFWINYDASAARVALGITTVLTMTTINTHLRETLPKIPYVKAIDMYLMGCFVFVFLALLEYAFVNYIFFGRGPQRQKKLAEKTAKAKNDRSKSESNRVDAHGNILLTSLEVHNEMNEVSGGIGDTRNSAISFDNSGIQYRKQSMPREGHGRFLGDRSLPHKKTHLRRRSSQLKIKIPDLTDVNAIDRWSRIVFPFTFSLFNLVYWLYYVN

[8] = target: T2, GABA-A receptor; alpha-3/beta-3/gamma-2 (Homo sapiens); assay: Efficacy against human recombinant GABAA alpha3 in combination with beta-3-gamma-2 expressed in L(tk-) cells by whole cell patch clamp method; format: functional, cell-based
[9] = target: T3, GABA-A receptor; alpha-5/beta-3/gamma-2 (Homo sapiens); assay: Efficacy against human recombinant GABAA alpha5 in combination with beta3gamma2 expressed in L(tk-) cells by whole cell patch clamp method; format: functional, cell-based
Rattus norvegicus [10] = assay: Activity in rat elevated plus maze assay at 3 mg/kg, po; format: functional, organism-based; set-up: dose 3 mg/kg
[11] = target: GABA-A receptor; anion channel (Rattus norvegicus) (UniProt O09028+P15431+P18506+P18508+P19969+P20236+P23574+P23576+P28471+P28473+P30191+P62813+P63079+P63138+Q91ZM7+Q9ES14); assay: (§1) Displacement of [3H]Ro-151788 from central benzodiazepine binding site in rat administered po; format: functional
[12] = target: GABA-A receptor; anion channel; assay: as §1; format: functional
[13] = Oral bioavailability in rhesus monkey; format: ADME, organism-based, Macaca mulatta; conditions: in vivo
[14] = Plasma clearance in rhesus monkey; format: ADME, organism-based, Macaca mulatta
[15] = Half life in rhesus monkey; format: ADME, organism-based, Macaca mulatta; conditions: in vivo
Rattus norvegicus [16] = assay: Activity in rat elevated plus maze assay at 1 mg/kg, po; format: functional, organism-based; set-up: dose 1 mg/kg

| Compound | Efficacy [1] [%] | Efficacy [2] [%] | Efficacy [3] [%] | Efficacy [4] [%] | Efficacy [5] [%] | clearance [6] [L/h/kg] | Ki [7] [µM] | Efficacy [8] [%] | Efficacy [9] [%] | Activity (Rattus norvegicus [10]) | ID50 [11] [mg/kg] | EC50 [12] [µM] | bioavailability [13] [%] | clearance [14] [L/h/kg] | half-life [15] [h] | Activity (Rattus norvegicus [16]) |
| --- | --- | --- | --- | --- | --- | --- | --- | --- | --- | --- | --- | --- | --- | --- | --- | --- |
| CC(C)(O)c1ccn2c(-c3ccc(F)c(-c4cccnc4)c3)cnc2n1 | 5 | 39 | 54 | 18 | 48 | 0.492 | 0.00085 | 57 | 20 | Active | 0.84 | 0.58 | – | – | – | – |
| N#Cc1cc(F)ccc1-c1cc(-c2cnc3nc(C(F)(F)F)ccn23)ccc1F | – | – | – | – | – | 0.174 | 0.0012 | 25 | 2 | – | 0.27 | 0.019 | 49 | 0.18 | 13.4 | Active |

Source: ChEMBL document CHEMBL1148587, “Imidazo[1,2-a]pyrimidines as functionally selective and orally bioavailable GABA(A)alpha2/alpha3 binding site agonists for the treatment of anxiety disorders” (J Med Chem, 2006)
